Measured values as given in patent publication US20060271062A1 (priority 2005, published 2006).
Where two headings read alike, the source gives them in different places.

Columns and labels:
[1] = tested on: lens epithelial cell; settings: in vitro; cited from earlier work
[2] = tested on: residual lens epithelial cells; settings: rabbit, in vivo
[3] = tested on: trabecular meshwork; settings: cited from earlier work
[4] = tested on: residual lens epithelial cells; type: cell-based, human
[5] = tested on: lens epithelial cells; settings: rabbit, in vivo
[6] = tested on: lens epithelial cells; type: cell-based, human
[7] = tested on: lens, lens capsule or corneal endothelium and other adjacent tissues; settings: outflow facility-effective concentrations, infusion for 45-90 min; cited from earlier work
[8] = tested on: residual lens epithelial cells; assay: Intracapsular latrunculin-B during extracapsular lens extraction in rabbits (Example 1); type: in vivo, rabbit; settings: 2 μM
[9] = 1 ml intracapsular for 10 minutes then 5 min irrigation/aspiration, vehicle 0.25% DMSO, light microscopy of fixed capsular bag

SMILES	Inhibiting lens epithelial cell proliferation [1]	Lens epithelial cells removed in comparison to control vehicle, determined by LM [2]	Lens epithelial cells removed in comparison to control vehicle, determined by LM [4]	PCO formation or severity in comparison to control vehicle [5]	PCO formation or severity in comparison to control vehicle [6]	further results
O=c1[nH]cc(F)c(=O)[nH]1 [5-fluorouracil]	effective	–	–	–	–	–
CC1CNCCN1S(=O)(=O)c1cccc2cnccc12 (stereo not drawn) [H-7, 1-(5-isoquinolinyl-sulfonyl)-2-methylpiperazine]	–	more lens epithelial cells be removed	more lens epithelial cells be removed	prevent the formation or reduce the severity of PCO	prevent the formation or reduce the severity of PCO	Outflow facility ([3]; monkey, in vivo): significantly increased
COc1cc2c(c(OC)c1OC)-c1ccc(OC)c(=O)cc1[C@@H](NC(C)=O)CC2 [colchicine]	effective	–	–	–	–	–
COc1cccc2c1C(=O)c1c(O)c3c(c(O)c1C2=O)C[C@@](O)(C(C)=O)C[C@@H]3O[C@H]1C[C@H](N)[C@H](O)[C@H](C)O1 [daunomycin]	effective	–	–	–	–	–
C/C1=C/C(=O)O[C@@H]2C[C@@H](CC[C@H](C)/C=C\CC1)O[C@@](O)([C@@H]1CSC(=O)N1)C2 [latrunculin-B]	–	more lens epithelial cells be removed	more lens epithelial cells be removed	prevent the formation or reduce the severity of PCO	prevent the formation or reduce the severity of PCO	Outflow facility ([3]; living monkeys, all concentrations named in b65 (latrunculin-B 0.5-2 μM, 0.01% topical; H-7 100-300 μM, 5% topical)): significantly increased; Observable damage to the lens, lens capsule or corneal endothelium and other adjacent tissues [7]: did not induce any observable damage; Clearance of residual lens epithelial cells during the extracapsular lens extraction [8]: facilitated the clearance; Area A (dirty area with dense residual materials): treated eye versus vehicle-treated eye [8, 9]: no difference; Area B (relatively clean area): residual lens epithelial cells versus vehicle-treated eye [8, 9]: fewer residual lens epithelial cells
CO[C@@]12[C@H](COC(N)=O)C3=C(C(=O)C(C)=C(N)C3=O)N1C[C@@H]1N[C@@H]12 [mitomycin C]	effective	–	–	–	–	–
